# In ChEMBL document CHEMBL1201861, “Genomics of Drug Sensitity in Cancer screening data, Wellcome Trust Sanger Institute”:
# Columns and labels:
# SF-295 = test: cells; type: functional, cell-based; settings: Homo sapiens;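 further: growth inhibition of SF-295 cells, read out with a cell viability assay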
# Description: SANGER: Inhibition of human SF295 cell growth in a cell viability assay.
# CaR-1 = test: cells; type: functional, cell-based; settings: Homo sapiens;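 further: growth inhibition of human CaR-1 cancer cells, read out with a cell viability assay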
# Description: SANGER: Inhibition of human CaR-1 cell growth in a cell viability assay.
# K052 = test: cells; type: functional, cell-based, Homo sapiens; settings: Homo sapiens, K052;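 further: Read-out from a cell viability assay, IC50 reflecting suppression of K052 cell growth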
# Description: SANGER: Inhibition of human K052 cell growth in a cell viability assay.
# Raji = test: cells; type: functional, cell-based, Homo sapiens; settings: Homo sapiens, Raji;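 further: cell viability assay measuring inhibition of Raji cell growth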
# Description: SANGER: Inhibition of human Raji cell growth in a cell viability assay.
# UMC-11 = test: cells; type: functional, cell-based; settings: Homo sapiens;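 further: growth inhibition of UMC-11 cells, read out with a cell viability assay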
# Description: SANGER: Inhibition of human UMC-11 cell growth in a cell viability assay.
# CAL-120 = test: cells; type: functional, cell-based; settings: Homo sapiens;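 further: cell growth inhibition, read out as cell viability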
# Description: SANGER: Inhibition of human CAL-120 cell growth in a cell viability assay.
# RPMI-2650 = test: cells; type: functional, cell-based; settings: Homo sapiens
# Description: SANGER: Inhibition of human RPMI-2650 cell growth in a cell viability assay.
# KYSE-510 = test: cells; type: functional, cell-based; settings: Homo sapiens;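 further: cell viability readout used to measure how strongly growth of the cell line is suppressed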
# Description: SANGER: Inhibition of human KYSE-510 cell growth in a cell viability assay.
# ARH-77 = test: cells; type: functional, cell-based, Homo sapiens; settings: Homo sapiens, ARH-77;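 further: growth inhibition of ARH-77 cells, read out by a cell viability assay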
# Description: SANGER: Inhibition of human ARH-77 cell growth in a cell viability assay.
# GAMG = test: cells; type: functional, cell-based; settings: Homo sapiens;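 further: cell growth inhibition measured by a viability assay in the GAMG human cell line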
# Description: SANGER: Inhibition of human GAMG cell growth in a cell viability assay.
# BC1 cell line = test: SANGER: Inhibition of human BC-1 cell growth in a cell viability assay.; type: functional, cell-based; settings: Homo sapiens, BC1
# KMOE-2 = test: cells; type: functional, cell-based, Homo sapiens; settings: Homo sapiens, KMOE-2;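 further: growth inhibition of human KMOE-2 cells, read out with a cell viability assay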
# Description: SANGER: Inhibition of human KMOE-2 cell growth in a cell viability assay.
# KYSE-140 = test: cells; type: functional, cell-based; settings: Homo sapiens;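 further: cell viability assay measuring growth inhibition in human KYSE-140 cells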
# Description: SANGER: Inhibition of human KYSE-140 cell growth in a cell viability assay.
# SCC-3 = test: cells; type: functional, cell-based, Homo sapiens; settings: Homo sapiens, SCC-3;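 further: cell viability assay measuring inhibition of SCC-3 cell growth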
# Description: SANGER: Inhibition of human SCC-3 cell growth in a cell viability assay.
# A673 = test: cells; type: functional, cell-based; settings: Homo sapiens;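 further: growth inhibition of human A673 cells, read out through a cell viability assay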
# Description: SANGER: Inhibition of human A673 cell growth in a cell viability assay.
# ECC4 = test: cells; type: functional, cell-based, Homo sapiens; settings: Homo sapiens, ECC4;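 further: growth inhibition of ECC4 cells, read out with a cell viability assay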
# Description: SANGER: Inhibition of human ECC4 cell growth in a cell viability assay.
# HSC-3 = test: cells; type: functional, cell-based; settings: Homo sapiens
# Description: SANGER: Inhibition of human HSC-3 cell growth in a cell viability assay.
# LB647-SCLC = test: cells; type: functional, cell-based, Homo sapiens; settings: Homo sapiens, LB647-SCLC;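 further: cell growth inhibition, read out by a viability assay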
# Description: SANGER: Inhibition of human LB647-SCLC cell growth in a cell viability assay.
# NUGC-3 = test: cells; type: functional, cell-based; settings: Homo sapiens;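 further: growth inhibition of human NUGC-3 cells, read out with a cell viability assay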
# Description: SANGER: Inhibition of human NUGC-3 cell growth in a cell viability assay.
# NCI-H64 = test: cells; type: functional, cell-based, Homo sapiens; settings: Homo sapiens, NCI-H64;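 further: growth inhibition of NCI-H64 cells, read out with a cell viability assay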
# Description: SANGER: Inhibition of human NCI-H64 cell growth in a cell viability assay.
# SW948 = test: cells; type: functional, cell-based; settings: Homo sapiens;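 further: growth inhibition of SW948 cells, read out with a cell viability assay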
# Description: SANGER: Inhibition of human SW948 cell growth in a cell viability assay.
# JEG-3 = test: cells; type: functional, cell-based; settings: Homo sapiens;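 further: growth inhibition of human JEG-3 cells, read out with a cell viability assay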
# Description: SANGER: Inhibition of human JEG-3 cell growth in a cell viability assay.
# HCC1937 = test: cells; type: functional, cell-based; settings: Homo sapiens;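 further: growth inhibition measured with a cell viability read-out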
# Description: SANGER: Inhibition of human HCC1937 cell growth in a cell viability assay.
# 639-V = test: cells; type: functional, cell-based; settings: Homo sapiens;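 further: growth inhibition of 639-V cells, read out with a cell viability assay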
# Description: SANGER: Inhibition of human 639-V cell growth in a cell viability assay.
# PANC-08-13 = test: cells; type: functional, cell-based; settings: Homo sapiens
# Description: SANGER: Inhibition of human PANC-08-13 cell growth in a cell viability assay.
# COLO-678 = test: cells; type: functional, cell-based; settings: Homo sapiens
# Description: SANGER: Inhibition of human COLO-678 cell growth in a cell viability assay.
# HuP-T4 = test: cells; type: functional, cell-based; settings: Homo sapiens;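 further: cell viability assay measuring how much HuP-T4 cell growth is inhibited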
# Description: SANGER: Inhibition of human HuP-T4 cell growth in a cell viability assay.
# HT1197 = test: cells; type: functional, cell-based, HT-1197; settings: Homo sapiens
# Description: SANGER: Inhibition of human HT-1197 cell growth in a cell viability assay.
# DG-75 = test: cells; type: functional, cell-based, Homo sapiens; settings: Homo sapiens, DG-75;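 further: growth inhibition of DG-75 cells, read out with a cell viability assay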
# Description: SANGER: Inhibition of human DG-75 cell growth in a cell viability assay.
# NCI-H2170 = test: cells; type: functional, cell-based; settings: Homo sapiens;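 further: cell viability assay measuring growth inhibition of human NCI-H2170 cancer cells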
# Description: SANGER: Inhibition of human NCI-H2170 cell growth in a cell viability assay.
# LOUCY = test: cells; type: functional, cell-based, Homo sapiens; settings: Homo sapiens, LOUCY;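 further: growth inhibition of human LOUCY cells, read out with a cell viability assay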
# Description: SANGER: Inhibition of human LOUCY cell growth in a cell viability assay.
# PFSK-1 = test: cells; type: functional, cell-based; settings: Homo sapiens;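 further: cell viability assay measuring how strongly compounds suppress growth of human PFSK-1 cells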
# Description: SANGER: Inhibition of human PFSK-1 cell growth in a cell viability assay.
# BOKU = test: cells; type: functional, cell-based; settings: Homo sapiens;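 further: growth inhibition of the human BOKU cell line, read out by a cell viability assay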
# Description: SANGER: Inhibition of human BOKU cell growth in a cell viability assay.
# MONO-MAC-6 = test: cells; type: functional, cell-based, Homo sapiens; settings: Homo sapiens, MONO-MAC-6;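 further: cell viability assay measuring growth inhibition of human MONO-MAC-6 cells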
# Description: SANGER: Inhibition of human MONO-MAC-6 cell growth in a cell viability assay.
# BPH-1 = test: cells; type: functional, cell-based; settings: Homo sapiens;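 further: cell viability assay measuring growth inhibition of human BPH-1 cells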
# Description: SANGER: Inhibition of human BPH-1 cell growth in a cell viability assay.
# THP-1 = test: cells; type: functional, cell-based, Homo sapiens; settings: Homo sapiens, THP-1;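 further: growth inhibition of THP-1 cells, read out via a cell viability assay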
# Description: SANGER: Inhibition of human THP-1 cell growth in a cell viability assay.
# AU565 = test: cells; type: functional, cell-based; settings: Homo sapiens;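 further: cell viability assay measuring growth inhibition of human AU565 cells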
# Description: SANGER: Inhibition of human AU565 cell growth in a cell viability assay.
# COLO-680N = test: cells; type: functional, cell-based; settings: Homo sapiens;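 further: cell viability assay used to measure inhibition of COLO-680N cell growth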
# Description: SANGER: Inhibition of human COLO-680N cell growth in a cell viability assay.
# HuCCT-1 = test: cells; type: functional, cell-based, HuCCT1; settings: Homo sapiens;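 further: growth inhibition of HuCCT-1 cells, read out by a cell viability assay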
# Description: SANGER: Inhibition of human HuCCT1 cell growth in a cell viability assay.
# DoTc2-4510 = test: cells; type: functional, cell-based; settings: Homo sapiens
# NCI-H2405 = test: cells; type: functional, cell-based; settings: Homo sapiens;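 further: growth inhibition of the human cell line, read out with a cell viability assay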
# Description: SANGER: Inhibition of human NCI-H2405 cell growth in a cell viability assay.
# LC4-1 = test: cells; type: functional, cell-based, Homo sapiens; settings: Homo sapiens, LC4-1;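 further: growth inhibition of LC4-1 cells, read out with a cell viability assay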
# Description: SANGER: Inhibition of human LC4-1 cell growth in a cell viability assay.
# NCI-H1522 = test: cells; type: functional, cell-based, Homo sapiens; settings: Homo sapiens, NCI-H1522;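 further: growth inhibition of NCI-H1522 cells, read out with a cell viability assay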
# Description: SANGER: Inhibition of human NCI-H1522 cell growth in a cell viability assay.
# Detroit 562 = test: cells; type: functional, cell-based; settings: Homo sapiens;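 further: growth inhibition of human Detroit 562 cells, read out by a cell viability assay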
# Description: SANGER: Inhibition of human Detroit562 cell growth in a cell viability assay.
# NCI-H727 = test: cells; type: functional, cell-based; settings: Homo sapiens;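 further: growth inhibition of human NCI-H727 cells, read out with a cell viability assay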
# Description: SANGER: Inhibition of human NCI-H727 cell growth in a cell viability assay.
# LC-1F = test: cells; type: functional, cell-based, Homo sapiens; settings: Homo sapiens, LC-1F;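 further: growth inhibition of human LC-1F cells, read out with a cell viability assay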
# Description: SANGER: Inhibition of human LC-1F cell growth in a cell viability assay.
# UMUC3 = test: cells; type: functional, cell-based; settings: Homo sapiens;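 further: growth inhibition of human UM-UC-3 cells, read out with a cell viability assay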
# Description: SANGER: Inhibition of human UM-UC-3 cell growth in a cell viability assay.
# NCI-H2122 = test: cells; type: functional, cell-based; settings: Homo sapiens;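 further: growth inhibition of the cells, read out with a cell viability assay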
# Description: SANGER: Inhibition of human NCI-H2122 cell growth in a cell viability assay.
# TE-441-T = test: cells; type: functional, cell-based, Homo sapiens; settings: Homo sapiens, TE-441-T
# Description: SANGER: Inhibition of human TE-441-T cell growth in a cell viability assay.
# LN-405 = test: cells; type: functional, cell-based; settings: Homo sapiens
# Description: SANGER: Inhibition of human LN-405 cell growth in a cell viability assay.
# T47D = test: cells; type: functional, cell-based; settings: Homo sapiens;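 further: growth inhibition of human T47D cells, measured with a cell viability assay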
# Description: SANGER: Inhibition of human T47D cell growth in a cell viability assay.
# MDA-MB-134-VI = test: cells; type: functional, cell-based, Homo sapiens; settings: Homo sapiens, MDA-MB-134-VI
# Description: SANGER: Inhibition of human MDA-MB-134-VI cell growth in a cell viability assay.
# H4 = test: cells; type: functional, cell-based; settings: Homo sapiens
# Description: SANGER: Inhibition of human H4 cell growth in a cell viability assay.
# GCT = test: cells; type: functional, cell-based; settings: Homo sapiens;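 further: GCT cell line proliferation inhibition, read out with a cell viability assay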
# Description: SANGER: Inhibition of human GCT cell growth in a cell viability assay.
# CESS = test: SANGER: Inhibition of human CESS cell growth in a cell viability assay.; type: functional, cell-based; settings: Homo sapiens, CESS
# HLE = test: cells; type: functional, cell-based; settings: Homo sapiens;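 further: growth inhibition of human HLE cells, read out by a cell viability assay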
# Description: SANGER: Inhibition of human HLE cell growth in a cell viability assay.
# HGC-27 = test: cells; type: functional, cell-based; settings: Homo sapiens;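 further: growth inhibition of human HGC-27 cells, read out in a cell viability assay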
# Description: SANGER: Inhibition of human HGC-27 cell growth in a cell viability assay.
# NB14 = test: cells; type: functional, cell-based, Homo sapiens; settings: Homo sapiens, NB14;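 further: growth inhibition of NB14 cells measured with a cell viability assay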
# Description: SANGER: Inhibition of human NB14 cell growth in a cell viability assay.
# MOLT-13 = test: cells; type: functional, cell-based; settings: Homo sapiens;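 further: IC50 for suppression of MOLT-13 cell growth, read out with a cell viability assay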
# Description: SANGER: Inhibition of human MOLT-13 cell growth in a cell viability assay.
smiles,measurement,setting,value
C/C(=C\c1csc(C)n1)[C@@H]1C[C@@H]2O[C@]2(C)CCC[C@H](C)[C@H](O)[C@@H](C)C(=O)C(C)(C)[C@@H](O)CC(=O)O1 [PATUPILONE],IC50,SF-295,1.92 nM
same,IC50,CaR-1,> 32 nM
same,IC50,K052,5.84 nM
same,IC50,Raji,> 32 nM
same,IC50,UMC-11,> 32 nM
same,IC50,CAL-120,10.1 nM
same,IC50,RPMI-2650,2.08 nM
same,IC50,KYSE-510,0.0738 nM
same,IC50,ARH-77,6.13 nM
same,IC50,GAMG,1.78 nM
same,IC50,BC1 cell line,1.99 nM
same,IC50,KMOE-2,> 32 nM
same,IC50,KYSE-140,1.23 nM
same,IC50,SCC-3,> 32 nM
same,IC50,A673,2.48 nM
same,IC50,ECC4,> 32 nM
same,IC50,HSC-3,0.786 nM
same,IC50,LB647-SCLC,3.1 nM
same,IC50,NUGC-3,1.16 nM
same,IC50,NCI-H64,8.25 nM
same,IC50,SW948,17.8 nM
same,IC50,JEG-3,5.01 nM
same,IC50,HCC1937,> 32 nM
same,IC50,639-V,0.218 nM
same,IC50,PANC-08-13,31.1 nM
same,IC50,COLO-678,> 32 nM
same,IC50,HuP-T4,2.54 nM
same,IC50,HT1197,> 32 nM
same,IC50,DG-75,> 32 nM
same,IC50,NCI-H2170,5.22 nM
same,IC50,LOUCY,4.35 nM
same,IC50,PFSK-1,13.3 nM
same,IC50,BOKU,> 32 nM
same,IC50,MONO-MAC-6,17.4 nM
same,IC50,BPH-1,0.521 nM
same,IC50,THP-1,23.5 nM
same,IC50,AU565,4.1 nM
same,IC50,COLO-680N,7.16 nM
same,IC50,HuCCT-1,2.61 nM
same,IC50,DoTc2-4510,0.846 nM
same,IC50,NCI-H2405,12.7 nM
same,IC50,LC4-1,12.8 nM
same,IC50,NCI-H1522,> 32 nM
same,IC50,Detroit 562,1.4 nM
same,IC50,NCI-H727,1.8 nM
same,IC50,LC-1F,> 32 nM
same,IC50,UMUC3,1.85 nM
same,IC50,NCI-H2122,0.41 nM
same,IC50,TE-441-T,26.3 nM
same,IC50,LN-405,> 32 nM
same,IC50,T47D,> 32 nM
same,IC50,MDA-MB-134-VI,> 32 nM
same,IC50,H4,0.975 nM
same,IC50,GCT,6.61 nM
same,IC50,CESS,3.38 nM
same,IC50,HLE,0.0826 nM
same,IC50,HGC-27,0.338 nM
Cc1ccc(C(=O)Nc2ccc(CN3CCN(C)CC3)c(C(F)(F)F)c2)cc1C#Cc1cnc2cccnn12 [PONATINIB],IC50,SF-295,> 512 nM
same,IC50,CaR-1,> 512 nM
same,IC50,K052,> 512 nM
same,IC50,Raji,> 512 nM
same,IC50,UMC-11,> 512 nM
same,IC50,CAL-120,476 nM
same,IC50,RPMI-2650,> 512 nM
same,IC50,KYSE-510,> 512 nM
same,IC50,ARH-77,> 512 nM
same,IC50,GAMG,> 512 nM
same,IC50,BC1 cell line,> 512 nM
same,IC50,KMOE-2,> 512 nM
same,IC50,KYSE-140,> 512 nM
same,IC50,SCC-3,> 512 nM
same,IC50,A673,> 512 nM
same,IC50,ECC4,> 512 nM
same,IC50,HSC-3,> 512 nM
same,IC50,LB647-SCLC,> 512 nM
same,IC50,NUGC-3,> 512 nM
same,IC50,NCI-H64,> 512 nM
same,IC50,SW948,> 512 nM
same,IC50,JEG-3,> 512 nM
same,IC50,HCC1937,> 512 nM
same,IC50,639-V,> 512 nM
same,IC50,PANC-08-13,> 512 nM
same,IC50,COLO-678,> 512 nM
same,IC50,HuP-T4,> 512 nM
same,IC50,HT1197,> 512 nM
same,IC50,DG-75,> 512 nM
same,IC50,NCI-H2170,> 512 nM
same,IC50,LOUCY,> 512 nM
same,IC50,PFSK-1,> 512 nM
same,IC50,BOKU,> 512 nM
same,IC50,MONO-MAC-6,8.37 nM
same,IC50,BPH-1,> 512 nM
same,IC50,THP-1,> 512 nM
same,IC50,AU565,> 512 nM
same,IC50,COLO-680N,> 512 nM
same,IC50,HuCCT-1,> 512 nM
same,IC50,DoTc2-4510,> 512 nM
same,IC50,NCI-H2405,> 512 nM
same,IC50,LC4-1,> 512 nM
same,IC50,NCI-H1522,> 512 nM
same,IC50,Detroit 562,> 512 nM
same,IC50,NCI-H727,> 512 nM
same,IC50,LC-1F,> 512 nM
same,IC50,UMUC3,> 512 nM
same,IC50,NCI-H2122,> 512 nM
same,IC50,TE-441-T,> 512 nM
same,IC50,LN-405,> 512 nM
same,IC50,T47D,> 512 nM
same,IC50,MDA-MB-134-VI,> 512 nM
same,IC50,H4,425 nM
same,IC50,GCT,> 512 nM
same,IC50,CESS,> 512 nM
same,IC50,HLE,419 nM
same,IC50,HGC-27,294 nM
CN(C)CCOc1ccc(-c2nc(-c3ccncc3)c(-c3ccc4c(c3)CC/C4=N\O)[nH]2)cc1 [SB590885],IC50,SF-295,> 5000 nM
same,IC50,CaR-1,> 5000 nM
same,IC50,UMC-11,> 5000 nM
same,IC50,CAL-120,> 5000 nM
same,IC50,RPMI-2650,> 5000 nM
same,IC50,KYSE-510,> 5000 nM
same,IC50,GAMG,> 5000 nM
same,IC50,KYSE-140,> 5000 nM
same,IC50,A673,> 5000 nM
same,IC50,HSC-3,> 5000 nM
same,IC50,NUGC-3,> 5000 nM
same,IC50,SW948,> 5000 nM
same,IC50,JEG-3,> 5000 nM
same,IC50,HCC1937,> 5000 nM
same,IC50,639-V,> 5000 nM
same,IC50,PANC-08-13,> 5000 nM
same,IC50,COLO-678,> 5000 nM
same,IC50,HuP-T4,> 5000 nM
same,IC50,HT1197,> 5000 nM
same,IC50,NB14,> 5000 nM
same,IC50,NCI-H2170,> 5000 nM
same,IC50,PFSK-1,> 5000 nM
same,IC50,BPH-1,> 5000 nM
same,IC50,AU565,> 5000 nM
same,IC50,COLO-680N,> 5000 nM
same,IC50,HuCCT-1,> 5000 nM
same,IC50,DoTc2-4510,> 5000 nM
same,IC50,NCI-H2405,> 5000 nM
same,IC50,Detroit 562,> 5000 nM
same,IC50,NCI-H727,> 5000 nM
same,IC50,NCI-H2122,> 5000 nM
same,IC50,LN-405,> 5000 nM
same,IC50,T47D,> 5000 nM
same,IC50,H4,> 5000 nM
same,IC50,GCT,> 5000 nM
same,IC50,MOLT-13,> 5000 nM
same,IC50,HLE,> 5000 nM
same,IC50,HGC-27,> 5000 nM
